Measurements: PMC8469489, “Effect of Lactic Acid Bacteria on the Pharmacokinetics and Metabolism of Ginsenosides in Mice” (Pharmaceutics, 2021)

Key:
[1] = Recovery of ginsenosides from urine and feces for 48 h after RGE, amoxicillin with or without LAB; conditions: feces 48 h after single oral RGE 2 g/kg; Amoxicillin + LAB vs amoxicillin
Description: (§1) Mice received amoxicillin (n = 12, 20 mg/kg, dissolved in water at 2 mL/kg, twice daily) for 3 days via oral gavage. From the 4th day, mice from the LAB + amoxicillin treatment group received LAB (2 g/kg suspended in water at 2 mL/kg, once daily) for 7 days via oral gavage. Mice from the amoxicillin treatment group received water (2 mL/kg, once daily) for 7 days via oral gavage.

[2] = test system: lactic acid bacteria (LAB); assay: Incubation of single ginsenoside with LAB (formation rate of metabolite ginsenoside); format: in vitro ADME; conditions: 7 days, 37 °C, MRS broth
Description: To compare the involvement of LAB on individual ginsenoside, an aliquot (10 μL) of each ginsenoside stock solution (10 mM in methanol) was mixed with autoclaved MRS broth (550 mg/10 mL in distilled water) and added 2 g of LAB (contained 1 billion CFU). Then, the mixture was incubated for 7 days in a shaking incubator at 37 °C and 300 rpm. For the analysis of ginsenosides, 0.2 mL aliquot of incubation mixture was collected every 24 h for 7 days. The incubation medium was diluted 100-fold with distilled water and stored at −80 °C. For the ginsenoside analysis, 200 μL of an IS solution (0.05 ng/mL berberine in methanol) was added to 30 μL of 100-fold diluted samples.

[3] = test system: lactic acid bacteria (LAB); assay: In vitro RGE fermentation with LAB; conditions: 7 days incubation
[4] = Recovery of ginsenosides from urine and feces for 48 h after RGE, amoxicillin vs control; conditions: for Fecal recovery, change by the amoxicillin treatment: feces 48 h after single oral RGE 2 g/kg, vs control; for Ginsenosides identified in urine: urine 48 h after single oral RGE 2 g/kg
Description: Aliquots (200 μL) of an IS (0.05 ng/mL berberine in methanol) were added to 30 μL of plasma or urine samples. Aliquots (600 μL) of an IS methanol solution containing 0.05 ng/mL berberine were added to 100 μL of 10% feces homogenate samples. […] After centrifugation, 200 μL of the supernatant was transferred to a clean tube and dried under a nitrogen stream at 40 °C. The residue was reconstituted using 100 μL of 70% methanol supplemented with 0.1% formic acid, and a 10-μL aliquot was injected into the LC–MS/MS system.

[5] = Pharmacokinetics of ginsenosides after single oral RGE with or without amoxicillin treatment; format: in vivo, mice; conditions: single oral RGE 2 g/kg; for AUC: AUC 0 to 48 h
Description: Male ICR mice (7-weeks-year-old, 30–35 g) were purchased from Samtako Co. (Osan, Kyunggi-do, Korea). Animals were acclimatized for 1 week in an animal facility at Kyungpook National University. Food and water were available ad libitum.
Before blood sampling, mice were anesthetized using isoflurane (isoflurane vaporizer to 2% with oxygen flow at 0.8 L/min) for 5 min.

[6] = Pharmacokinetics of ginsenosides after single oral RGE after amoxicillin with or without repeated LAB treatment; conditions: single oral RGE 2 g/kg; for AUC: AUC 0 to 48 h
Description: as §1
Blood sampling was performed using a sparse sampling method via the right or left retro-orbital vein under isoflurane anesthesia at 0, 2, 4, and 8 h after the RGE administration through the heparinized capillary tube. […] After centrifugation of the blood samples at 10,000× g for 1 min, 30 μL aliquots of plasma were stored at −80 °C until the analysis of the ginsenosides. Subsequent protocols were identical to the amoxicillin treated group.
Pharmacokinetic parameters were calculated using WinNonlin (version 5.1, Pharsight, Mountain View, CA, USA) by a non-compartmental analysis.

[7] = set-up: method as in PMID 32023909; conditions: cited from earlier work
[8] = Amoxicillin 3 days pretreatment
[9] = Amoxicillin 3 days then water 7 days

CC(C)=CCC[C@](C)(O)[C@H]1CC[C@]2(C)[C@@H]1[C@H](O)C[C@@H]1[C@@]3(C)CC[C@H](O)C(C)(C)[C@@H]3[C@@H](O[C@@H]3O[C@H](CO)[C@@H](O)[C@H](O)[C@H]3O[C@@H]3O[C@H](CO)[C@@H](O)[C@H](O)[C@H]3O)C[C@]12C [GRf]
Fecal recovery, change by LAB treatment [1]: significantly decreased | Metabolite formation on incubation of single ginsenoside with LAB [2]: produced GRh1 | Alteration of ginsenoside by fermentation of RGE with LAB [3]: gradual decrease | Fecal recovery, change by the amoxicillin treatment [4]: increased

CC(C)=CCC[C@](C)(O[C@@H]1O[C@H](CO[C@@H]2O[C@H](CO)[C@@H](O)[C@H](O)[C@H]2O)[C@@H](O)[C@H](O)[C@H]1O)[C@H]1CC[C@]2(C)[C@@H]1[C@H](O)C[C@@H]1[C@@]3(C)CC[C@H](O[C@@H]4O[C@H](CO)[C@@H](O)[C@H](O)[C@H]4O[C@@H]4O[C@H](CO)[C@@H](O)[C@H](O)[C@H]4O)C(C)(C)[C@@H]3CC[C@]12C [GRb1, 20(S)-ginsenosides Rb1]
Fecal recovery, change by LAB treatment [1]: significantly decreased | AUC ([5]; male, ICR, mouse, plasma, po, 2 g/kg, Amoxicillin 3 days pretreatment, read-out: AUC): 926 ± 439 ng·h/mL | Cmax ([5]; male, ICR, mouse, plasma, po, 2 g/kg, Amoxicillin 3 days pretreatment, read-out: Cmax): 28.2 ± 12.9 ng/mL | Half-Life ([5]; male, ICR, mouse, plasma, po, 2 g/kg, Amoxicillin 3 days pretreatment, read-out: Half-life (converted)): 1300 ± 216 min | MRT ([5]; male, ICR, mouse, plasma, po, 2 g/kg, Amoxicillin 3 days pretreatment, read-out: MRT): 19.3 ± 1.4 h | AUC ([5]; male, ICR, mouse, plasma, po, 2 g/kg, Control, plasma, n = 3, read-out: AUC): 896 ± 81.3 ng·h/mL | Cmax ([5]; male, ICR, mouse, plasma, po, 2 g/kg, Control, plasma, read-out: Cmax): 41.3 ± 14.3 ng/mL | Half-Life ([5]; male, ICR, mouse, plasma, po, 2 g/kg, Control, plasma, read-out: Half-Life (converted)): 1550 ± 282 min | MRT ([5]; male, ICR, mouse, plasma, po, 2 g/kg, Control, plasma, read-out: MRT): 16.3 ± 2.7 h | Tmax ([5]; male, ICR, mouse, plasma, Amoxicillin 3 days pretreatment, read-out: Tmax): 8 h | Plasma concentrations, amoxicillin treatment compared to the control group [5]: not significantly affected | AUC ([6]; male, ICR, mouse, plasma, po, 2 g/kg, AUC, Amoxicillin 3 days then water 7 days): 752 ± 478 ng·h/mL | AUC ([6]; male, ICR, mouse, plasma, po, 2 g/kg, AUC, Amoxicillin + LAB (LAB 2 g/kg once daily 7 days)): 622 ± 164 ng·h/mL | Cmax ([6]; male, ICR, mouse, plasma, po, 2 g/kg, Cmax, Amoxicillin 3 days then water 7 days): 23.7 ± 11.6 ng/mL | Cmax ([6]; male, ICR, mouse, plasma, po, 2 g/kg, Cmax, Amoxicillin + LAB): 26.2 ± 4.6 ng/mL | Half-Life ([6]; male, ICR, mouse, plasma, po, 2 g/kg, Half-Life, Amoxicillin 3 days then water 7 days): 1210 ± 132 min | Half-Life ([6]; male, ICR, mouse, plasma, po, 2 g/kg, Half-life, Amoxicillin + LAB): 972 ± 54 min | MRT ([6]; male, ICR, mouse, plasma, po, 2 g/kg, MRT, Amoxicillin 3 days then water 7 days): 18.6 ± 1.6 h | MRT ([6]; male, ICR, mouse, plasma, po, 2 g/kg, MRT, Amoxicillin + LAB): 16.9 ± 1 h | Tmax ([6]; male, ICR, mouse, plasma, po, 2 g/kg, Tmax, Amoxicillin 3 days then water 7 days): 3.3 ± 1.2 h | Tmax ([6]; male, ICR, mouse, plasma, po, 2 g/kg, Tmax, Amoxicillin + LAB): 4.7 ± 3.1 h | Detection in mouse plasma following repeated LAB administration in addition to amoxicillin [6]: detected | Plasma exposure / pharmacokinetic parameters, LAB treatment compared with amoxicillin group [6]: not different | Alteration of ginsenoside by fermentation of RGE with LAB [3]: most significant decrease | Fecal recovery, change by the amoxicillin treatment [4]: increased | Ginsenosides identified in urine [4]: identified in urine | Ratio of liver AUC to plasma AUC [7]: < 0.2

CC(C)=CCC[C@](C)(O[C@@H]1O[C@H](CO[C@@H]2OC[C@H](O)[C@H](O)[C@H]2O)[C@@H](O)[C@H](O)[C@H]1O)[C@H]1CC[C@]2(C)[C@@H]1[C@H](O)C[C@@H]1[C@@]3(C)CC[C@H](O[C@@H]4O[C@H](CO)[C@@H](O)[C@H](O)[C@H]4O[C@@H]4O[C@H](CO)[C@@H](O)[C@H](O)[C@H]4O)C(C)(C)[C@@H]3CC[C@]12C [GRb2]
Fecal recovery, change by LAB treatment [1]: significantly decreased | Cmax [5, 8]: 10.3 ± 4.6 ng/mL | Half-Life [5, 8]: 1510 ± 162 min | MRT [5, 8]: 21.4 ± 1.6 h | Tmax [5, 8]: 13.3 ± 9.2 h | AUC [5, 8]: 391.5 ± 192 ng·h/mL | Cmax ([5]; Control, plasma): 12.5 ± 2.1 ng/mL | Half-Life ([5]; Control, plasma): 1480 ± 402 min | MRT ([5]; Control, plasma): 19.4 ± 1.6 h | Tmax ([5]; Control, plasma): 8.0 ± 0.0 h | AUC ([5]; Control, plasma, n = 3): 361.4 ± 74.3 ng·h/mL | Plasma concentrations, amoxicillin treatment compared to the control group [5]: not significantly affected | Metabolite formation on incubation of single ginsenoside with LAB [2]: produced GRg3 with the highest formation rate | Cmax [6, 9]: 10.9 ± 5.2 ng/mL | Half-Life [6, 9]: 1150 ± 138 min | MRT [6, 9]: 20.2 ± 1.7 h | Tmax [6, 9]: 4.0 ± 0.0 h | AUC [6, 9]: 385.9 ± 243.6 ng·h/mL | AUC ([6]; Amoxicillin + LAB (LAB 2 g/kg once daily 7 days)): 419.2 ± 108.6 ng·h/mL | Cmax ([6]; Amoxicillin + LAB): 15.1 ± 3.4 ng/mL | Half-Life ([6]; Amoxicillin + LAB): 1300 ± 102 min | MRT ([6]; Amoxicillin + LAB): 18.1 ± 0.9 h | Tmax ([6]; Amoxicillin + LAB): 8.0 ± 0.0 h | Detection in mouse plasma following repeated LAB administration in addition to amoxicillin [6]: detected | Plasma exposure / pharmacokinetic parameters, LAB treatment compared with amoxicillin group [6]: not different | Alteration of ginsenoside by fermentation of RGE with LAB [3]: most significant decrease | Fecal recovery, change by the amoxicillin treatment [4]: increased | Ginsenosides identified in urine [4]: identified in urine | Ratio of liver AUC to plasma AUC [7]: < 0.2

CC(C)=CCC[C@](C)(O[C@@H]1O[C@H](CO)[C@@H](O)[C@H](O)[C@H]1O)[C@H]1CC[C@]2(C)[C@@H]1[C@H](O)C[C@@H]1[C@@]3(C)CC[C@H](O)C(C)(C)[C@@H]3[C@@H](O[C@@H]3O[C@H](CO)[C@@H](O)[C@H](O)[C@H]3O[C@@H]3O[C@@H](C)[C@H](O)[C@@H](O)[C@H]3O)C[C@]12C [GRe]
Fecal recovery, change by LAB treatment [1]: significantly decreased | Metabolite formation on incubation of single ginsenoside with LAB [2]: produced GRh1 | Alteration of ginsenoside by fermentation of RGE with LAB [3]: most significant decrease | Fecal recovery, change by the amoxicillin treatment [4]: increased | Ginsenosides identified in urine [4]: identified in urine

CC(C)=CCC[C@](C)(O[C@@H]1O[C@H](CO)[C@@H](O)[C@H](O)[C@H]1O)[C@H]1CC[C@]2(C)[C@@H]1[C@H](O)C[C@@H]1[C@@]3(C)CC[C@H](O[C@@H]4O[C@H](CO)[C@@H](O)[C@H](O)[C@H]4O)C(C)(C)[C@@H]3CC[C@]12C [GF2]
Fecal recovery, change by LAB treatment [1]: remained similar | Metabolite formation on incubation of single ginsenoside with LAB [2]: the highest among the ginsenoside formation rate | Plasma exposure / pharmacokinetic parameters, LAB treatment compared with amoxicillin group [6]: increased | Alteration of ginsenoside by fermentation of RGE with LAB [3]: gradual decrease | Fecal recovery, change by the amoxicillin treatment [4]: significantly decreased

CC(C)=CCC[C@](C)(O[C@@H]1O[C@H](CO)[C@@H](O)[C@H](O)[C@H]1O)[C@H]1CC[C@]2(C)[C@@H]1[C@H](O)C[C@@H]1[C@@]3(C)CC[C@H](O)C(C)(C)[C@@H]3[C@@H](O[C@@H]3O[C@H](CO)[C@@H](O)[C@H](O)[C@H]3O)C[C@]12C [GRg1]
Fecal recovery, change by LAB treatment [1]: significantly decreased | Metabolite formation on incubation of single ginsenoside with LAB [2]: produced GRh1 | Alteration of ginsenoside by fermentation of RGE with LAB [3]: gradual decrease | Fecal recovery, change by the amoxicillin treatment [4]: increased | Ginsenosides identified in urine [4]: identified in urine
